Source: US20150150787A1 (Pearl Therapeutics, Inc., priority 2013, published 2015)

Key:
[1] = Aerosol performance by Next Generation Impactor, BD/GP/FF cosuspension MDIs (Example 2); assay type: physicochemical; conditions: NGI 30 LPM, versus mono/dual cosuspensions or other strengths
Procedure: The aerosol performance of each of the triple cosuspension compositions was evaluated and compared to the aerosol performance provided by the GFF, BFF, and BD Mono cosuspensions. Aerosol performance and aerodynamic particle size distributions were obtained using the Next Generation Impactor (NGI) with the flow rate set to 30±1 LPM (n=3).

[2] = Aerodynamic particle size distribution by Next Generation Impactor, MF/GP/FF triple cosuspension MDIs (Example 1); assay type: physicochemical; conditions: for FPM values when MF strength was varied: FF 4.8 μg and GPBr 18 μg/actuation, MF 100-300 μg/actuation
Procedure: The FF, GPBr, and MF materials were provided as a separate species of active agent particles, with each of the active agents provided as micronized, crystalline material. The co-suspension compositions were provided in pressurized metered dose inhalers (“MDI” or “MDIs”), with each formulation prepared to provide a delivered dose of 4.8 μg/actuation and 18 μg/actuation, respectively, of FF and GPBr. However, the amount of MF included in the three different compositions was varied, with compositions prepared to provide a delivered dose of MF selected from one of 100 μg/actuation, 200 μg/actuation, and 300 μg/actuation.
The suspending particles used in these co-suspensions were perforated microstructures prepared as described herein using a phospholipid material (DSPC). Drug crystals of GPBr (Boehringer Ingelheim, Petersberg, Va.) were micronized by air jet milling after receipt (median size, X50, ˜1.6 μm), but the FF (Inke, S.A., Barcelona Spain; X50˜1.4 μm) and MF (Hovione, Loures Portugal; X50˜1.6 μm) drug crystals were used as received. The Co-suspension formulations were prepared in HFA 134a propellant (Mexichem, S.A., Tlanepantla Mexico) and filled into 14 mL fluorinated ethylene polymer coated aluminum canisters (Presspart, Blackburn, UK), packaged with 50 μl valves, and delivered using an actuator with orifice size 0.3 mm (Bespak, King's Lynn, UK). Aerodynamic particle size distributions (aPSD) were obtained using the Next Generation Impactor (NGI) with the flow rate set to 30±1 LPM (n=3). Drug content was measured using ion-exchange HPLC with UV detection for FF and GP or reversed-phase HPLC with UV detection for MF.

Row | SMILES | Coformulation effect (aerosol performance) when formulated in the triple cosuspensions [1] | FPM values when MF strength was varied [2] | MF FPM dose proportionality, slope ([2]; FPM = drug mass stages 3 through MOC, MF 100, 200, 300 μg/actuation, NGI 30 LPM, n=3)
1 | COc1ccc(C[C@@H](C)NC[C@H](O)c2ccc(O)c(NC=O)c2)cc1 (racemic) [FF, (±)-2-hydroxy-5-[(1RS)-1-hydroxy-2-[[(1RS)-2-(4-methoxyphenyl)-1-methylethyl]-amino]ethyl] formanilide] | no coformulation effect was observed | remained virtually unchanged | 
2 | C[N+]1(C)CCC(OC(=O)C(O)(c2ccccc2)C2CCCC2)C1 (stereo not shown) [GP, (3-[(cyclopentylhydroxyphenylacetyl)oxy]-1,1-dimethyl-, bromide)] |  | remained virtually unchanged | 
3 | C[C@@H]1C[C@H]2[C@@H]3CCC4=CC(=O)C=C[C@]4(C)[C@@]3(Cl)[C@@H](O)C[C@]2(C)[C@@]1(OC(=O)c1ccco1)C(=O)CCl [MF, mometasone furoate] |  |  | 0.48
